According to ChEMBL document CHEMBL3885881, “DrugMatrix”:

Species on record: Rattus norvegicus
Assay: DrugMatrix - Regimen: Daily Repeat
Type: toxicity, organism-based, Sprague-Dawley
Design: regimen Daily Repeat, gender Male, age 6-8 weeks
Conditions: in vivo, po, route oral GAVAGE, vehicle .5 % CMC; for ABSOLUTE BASOPHIL / ABSOLUTE EOSINOPHIL / ABSOLUTE LYMPHOCYTE / ABSOLUTE MONOCYTE / ABSOLUTE SEGMENTED NEUTROPHIL / BASOPHIL / EOSINOPHIL / ERYTHROCYTE COUNT / HEMATOCRIT / HEMOGLOBIN / LEUKOCYTE COUNT / LYMPHOCYTE / MEAN CORPUSCULAR HEMOGLOBIN / MEAN CORPUSCULAR HEMOGLOBIN CONCENTRATION / MEAN CORPUSCULAR VOLUME / MONOCYTE / NEUTROPHIL / NUCLEATED RED BLOOD CELLS / PLATELET COUNT: tissue Blood; for ALANINE AMINOTRANSFERASE / ALBUMIN / ALKALINE PHOSPHATASE / ASPARTATE AMINOTRANSFERASE / BLOOD UREA NITROGEN / CARBON DIOXIDE / CHLORIDE / CHOLESTEROL / CREATINE PHOSPHOKINASE / CREATININE / GLUCOSE / LACTATE DEHYDROGENASE / LIPASE / PHOSPHORUS / POTASSIUM / SODIUM / TOTAL BILIRUBIN / TOTAL PROTEIN / URIC ACID: tissue Plasma
[1] = 0 mg/kg, 72 h, dose level Control, time 3 day
[2] = 0 mg/kg, 120 h, dose level Control, time 5 day
[3] = 1 mg/kg, 72 h, dose level Low, time 3 day
[4] = 1 mg/kg, 120 h, dose level Low, time 5 day

OC(CCN1CCCCC1)(c1ccccc1)C1CCCCC1 (configuration not stated) [TRIHEXYPHENIDYL]
ABSOLUTE BASOPHIL [1]: 0 CELLS/uL | ABSOLUTE EOSINOPHIL [1]: 0 CELLS/uL | ABSOLUTE LYMPHOCYTE [1]: 10913.67 CELLS/uL | ABSOLUTE MONOCYTE [1]: 85.33 CELLS/uL | ABSOLUTE SEGMENTED NEUTROPHIL [1]: 1401 CELLS/uL | BASOPHIL [1]: 0% | EOSINOPHIL [1]: 0% | ERYTHROCYTE COUNT [1]: 5.57 x10E6/uL | HEMATOCRIT [1]: 35.58% | HEMOGLOBIN [1]: 13.8 G/DL | LEUKOCYTE COUNT [1]: 12.4 x10E3/uL | LYMPHOCYTE [1]: 88% | MEAN CORPUSCULAR HEMOGLOBIN [1]: 24.78 pg | MEAN CORPUSCULAR HEMOGLOBIN CONCENTRATION [1]: 38.82 G/DL | MEAN CORPUSCULAR VOLUME [1]: 63.88 fL | MONOCYTE [1]: 0.67% | NEUTROPHIL [1]: 11.33% | NUCLEATED RED BLOOD CELLS [1]: 0 /100WBC | PLATELET COUNT [1]: 1162.33 x10E3/uL | ALANINE AMINOTRANSFERASE [1]: 53 u/L | ALBUMIN [1]: 4.17 G/DL | ALKALINE PHOSPHATASE [1]: 374.5 u/L | ASPARTATE AMINOTRANSFERASE [1]: 89.5 u/L | BLOOD UREA NITROGEN [1]: 16.33 mg/dL | CARBON DIOXIDE [1]: 29.17 mmol/L | CHLORIDE [1]: 97.67 MEQ/L | CHOLESTEROL [1]: 77 mg/dL | CREATINE PHOSPHOKINASE [1]: 464.83 u/L | CREATININE [1]: 0.14 mg/dL | GLUCOSE [1]: 164 mg/dL | LACTATE DEHYDROGENASE [1]: 155.5 u/L | LIPASE [1]: 9.17 u/L | PHOSPHORUS [1]: 12.4 mg/dL | POTASSIUM [1]: 6.91 MEQ/L | SODIUM [1]: 141.47 MEQ/L | TOTAL BILIRUBIN [1]: 0.2 mg/dL | TOTAL PROTEIN [1]: 5.95 G/DL | URIC ACID [1]: 1.72 mg/dL | ABSOLUTE BASOPHIL [2]: 0 CELLS/uL | ABSOLUTE EOSINOPHIL [2]: 20.5 CELLS/uL | ABSOLUTE LYMPHOCYTE [2]: 13871.67 CELLS/uL | ABSOLUTE MONOCYTE [2]: 60.5 CELLS/uL | ABSOLUTE SEGMENTED NEUTROPHIL [2]: 980.67 CELLS/uL | BASOPHIL [2]: 0% | EOSINOPHIL [2]: 0.17% | ERYTHROCYTE COUNT [2]: 5.65 x10E6/uL | HEMATOCRIT [2]: 35.63% | HEMOGLOBIN [2]: 14.08 G/DL | LEUKOCYTE COUNT [2]: 14.93 x10E3/uL | LYMPHOCYTE [2]: 92.83% | MEAN CORPUSCULAR HEMOGLOBIN [2]: 24.97 pg | MEAN CORPUSCULAR HEMOGLOBIN CONCENTRATION [2]: 39.55 G/DL | MEAN CORPUSCULAR VOLUME [2]: 63.13 fL | MONOCYTE [2]: 0.33% | NEUTROPHIL [2]: 6.67% | NUCLEATED RED BLOOD CELLS [2]: 0 /100WBC | PLATELET COUNT [2]: 1248.17 x10E3/uL | ALANINE AMINOTRANSFERASE [2]: 45.17 u/L | ALBUMIN [2]: 4.27 G/DL | ALKALINE PHOSPHATASE [2]: 405.67 u/L | ASPARTATE AMINOTRANSFERASE [2]: 74.17 u/L | BLOOD UREA NITROGEN [2]: 15.5 mg/dL | CARBON DIOXIDE [2]: 30.17 mmol/L | CHLORIDE [2]: 100.67 MEQ/L | CHOLESTEROL [2]: 57 mg/dL | CREATINE PHOSPHOKINASE [2]: 239.5 u/L | CREATININE [2]: 0.17 mg/dL | GLUCOSE [2]: 165.67 mg/dL | LACTATE DEHYDROGENASE [2]: 90.5 u/L | LIPASE [2]: 8.83 u/L | PHOSPHORUS [2]: 12.32 mg/dL | POTASSIUM [2]: 7.03 MEQ/L | SODIUM [2]: 142.65 MEQ/L | TOTAL BILIRUBIN [2]: 0.18 mg/dL | TOTAL PROTEIN [2]: 6.03 G/DL | URIC ACID [2]: 1.98 mg/dL | ABSOLUTE BASOPHIL [3]: 0 CELLS/uL | ABSOLUTE EOSINOPHIL [3]: 0 CELLS/uL | ABSOLUTE LYMPHOCYTE [3]: 14884.67 CELLS/uL | ABSOLUTE MONOCYTE [3]: 0 CELLS/uL | ABSOLUTE SEGMENTED NEUTROPHIL [3]: 848.67 CELLS/uL | BASOPHIL [3]: 0% | EOSINOPHIL [3]: 0% | ERYTHROCYTE COUNT [3]: 5.35 x10E6/uL | HEMATOCRIT [3]: 35.77% | HEMOGLOBIN [3]: 14.27 G/DL | LEUKOCYTE COUNT [3]: 15.73 x10E3/uL | LYMPHOCYTE [3]: 94.33% | MEAN CORPUSCULAR HEMOGLOBIN [3]: 26.7 pg | MEAN CORPUSCULAR HEMOGLOBIN CONCENTRATION [3]: 39.87 G/DL | MEAN CORPUSCULAR VOLUME [3]: 66.97 fL | MONOCYTE [3]: 0% | NEUTROPHIL [3]: 5.67% | NUCLEATED RED BLOOD CELLS [3]: 0 /100WBC | PLATELET COUNT [3]: 1285.67 x10E3/uL | ALANINE AMINOTRANSFERASE [3]: 51.33 u/L | ALBUMIN [3]: 4.33 G/DL | ALKALINE PHOSPHATASE [3]: 449.67 u/L | ASPARTATE AMINOTRANSFERASE [3]: 84 u/L | BLOOD UREA NITROGEN [3]: 18.67 mg/dL | CARBON DIOXIDE [3]: 27.33 mmol/L | CHLORIDE [3]: 99.67 MEQ/L | CHOLESTEROL [3]: 76 mg/dL | CREATINE PHOSPHOKINASE [3]: 344.67 u/L | CREATININE [3]: 0.14 mg/dL | GLUCOSE [3]: 149.33 mg/dL | LACTATE DEHYDROGENASE [3]: 254.67 u/L | LIPASE [3]: 9.33 u/L | PHOSPHORUS [3]: 13.83 mg/dL | POTASSIUM [3]: 6.89 MEQ/L | SODIUM [3]: 145.2 MEQ/L | TOTAL BILIRUBIN [3]: 0.17 mg/dL | TOTAL PROTEIN [3]: 6.23 G/DL | URIC ACID [3]: 1.77 mg/dL | ABSOLUTE BASOPHIL [4]: 0 CELLS/uL | ABSOLUTE EOSINOPHIL [4]: 0 CELLS/uL | ABSOLUTE LYMPHOCYTE [4]: 16182.67 CELLS/uL | ABSOLUTE MONOCYTE [4]: 124 CELLS/uL | ABSOLUTE SEGMENTED NEUTROPHIL [4]: 1360 CELLS/uL | BASOPHIL [4]: 0% | EOSINOPHIL [4]: 0% | ERYTHROCYTE COUNT [4]: 5.66 x10E6/uL | HEMATOCRIT [4]: 35.77% | HEMOGLOBIN [4]: 14.3 G/DL | LEUKOCYTE COUNT [4]: 17.67 x10E3/uL | LYMPHOCYTE [4]: 91.67% | MEAN CORPUSCULAR HEMOGLOBIN [4]: 25.23 pg | MEAN CORPUSCULAR HEMOGLOBIN CONCENTRATION [4]: 40 G/DL | MEAN CORPUSCULAR VOLUME [4]: 63.13 fL | MONOCYTE [4]: 0.67% | NEUTROPHIL [4]: 7.67% | NUCLEATED RED BLOOD CELLS [4]: 0.33 /100WBC | PLATELET COUNT [4]: 1182.33 x10E3/uL | ALANINE AMINOTRANSFERASE [4]: 45.67 u/L | ALBUMIN [4]: 4.2 G/DL | ALKALINE PHOSPHATASE [4]: 394 u/L | ASPARTATE AMINOTRANSFERASE [4]: 78.67 u/L | BLOOD UREA NITROGEN [4]: 15.67 mg/dL | CARBON DIOXIDE [4]: 26.67 mmol/L | CHLORIDE [4]: 101 MEQ/L | CHOLESTEROL [4]: 73.33 mg/dL | CREATINE PHOSPHOKINASE [4]: 379.33 u/L | CREATININE [4]: 0.13 mg/dL | GLUCOSE [4]: 139.67 mg/dL | LACTATE DEHYDROGENASE [4]: 370.67 u/L | LIPASE [4]: 9 u/L | PHOSPHORUS [4]: 12.93 mg/dL | POTASSIUM [4]: 6.84 MEQ/L | SODIUM [4]: 143 MEQ/L | TOTAL BILIRUBIN [4]: 0.17 mg/dL | TOTAL PROTEIN [4]: 5.9 G/DL | URIC ACID [4]: 1.3 mg/dL
